Experimental data taken from patent US20250195601A1, “TURMERIC OIL ESSENTIAL-OIL BISABOLENE SESQUITERPENOIDS IN THE TREATMENT OF NON-NEURODEGENERATIVE DISEASES” (UNIVERSIDAD DE CUENCA, priority 2023, published 2025).

Legend:
Assay type in all cases: in vivo, human
[1] = test system: patient with mixed cerebral palsy, epilepsy, constipation, mental retardation; assay: Clinical course, Case 4; details: with baclofen, before turmeric oil
Excerpt: Patient. They were the child of non-consanguineous parents, born of a twin pregnancy by cesarean section at 30 weeks' gestation. The patient had multiple complications in their neonatal period with prolonged mechanical ventilation, including neuro-infection and neonatal seizures.
Central hypotonia and peripheral hypertonia, dystonia and dyskinesia, ROT++++/++, bilateral plantar flexor reflex were present.
No advances regarding […] neurological condition were identified. The pharmacological therapy included baclofen to improve muscle tone and levetiracetam to control seizures.
Scoliosis, retractions, and joint deformities were still visible. Dystonias and dyskinesias were persistent.
In the subsequent 7.5 years, the patient had epileptic seizures of irregular onset and insufficient advances in their motor development. Administration of turmeric oil began with a dose of 27 mg per day.

[2] = test system: patient with executive functions impairment, epilepsy, mental retardation, attention deficit; assay: Clinical course, Case 1; details: before turmeric oil
Description: […], due to their academic failure and their refusal to continue taking methylphenidate, it was decided to start using turmeric oil in a dosage of 36 mg/day.
The turmeric oil and two anticonvulsants (valproic acid and clobazam) were administered to the patient.
Conversely, a cognitive enrichment in the patient's profile was evident. This enhancement was reflected in their academic performance and […] general life development. The patient presented seizures relapse and maintained antiepileptic drugs administration.

[3] = test system: patient with Guillain-Barré syndrome, flaccid tetraplegia; assay: Clinical course and muscle strength, Case 5; details: after three weeks of hospitalization, before turmeric oil
Excerpt: Patient. They were the child of non-consanguineous parents. Parents referred that one day the patient woke up but could not walk. Noteworthy, the day before this event, they received a COVID vaccine. The patient was taken to a hospital and evaluated in the emergency room. Demyelinating motor polyradiculoneuropathy of severe degree with distal predominance, more significant in lower extremities was reported after performing electromyography and nerve conduction velocity analysis. On the third day at the hospital, the patient lost walking, sitting, neck control and lower and upper extremities mobility. No mechanical ventilation was required.
Thus, the patient was prostrate, and it was recommended to start administering turmeric oil in a dose of 21.6 mg per day.

Compound: CC[C@@H](C(N)=O)N1CCCC1=O [levetiracetam]
- seizures [1]: not controlled

Compound: COC(=O)C(c1ccccc1)C1CCCCN1 (stereo not drawn) [prolonged-release methylphenidate, methylphenidate]
- result of methylphenidate treatment [2]: poor results

Compound: gamma globulin
- condition at discharge [3]: no improvement
